Values quoted from earlier work in patent US12370233B2, “Depot systems comprising glatiramer acetate” (MAPI PHARMA LTD., priority 2016, dated 2025).

Conditions: as reported by Rotstein et al., JAMA Neurol., 2015

Substance	NEDA at one year [%]
daclizumab [ZINBRYTA®]	39
natalizumab [TYSABRI®]	47
